Assay results: ChEMBL document CHEMBL1667781, “Biological evaluation of KRIBB3 analogs as a microtubule polymerization inhibitor” (Bioorg Med Chem Lett, 2011)

test: Inhibition of tubulin polymerization for 70 mins by microtubule polymerization assay; set-up: concentration or dose not given beside the values

Row | Structure (SMILES) | inhibition [%]
1 | COc1ccc(-c2cnoc2-c2cc(C)c(OCc3ccccc3)c(C)c2)cc1 | 126
2 | COc1ccc(-c2cnoc2-c2ccc(O)cc2)cc1 | 80
3 | COc1ccc(-c2cnoc2-c2ccc(O)c(O)c2)cc1 | 65
4 | COc1ccc(-c2cnoc2-c2ccc(OC)c(OCc3ccccc3)c2)cc1 | 128
5 | CCc1cc(-c2oncc2-c2ccc(OC)cc2)c(OCc2ccccc2)cc1OC | 79
6 | CCc1cc(-c2oncc2-c2ccc(OC)cc2)c(O)cc1OC | 52
7 | COc1ccc(-c2cnoc2-c2ccc(OC)c(O)c2)cc1 | 50
8 | CCc1cc(-c2oncc2-c2ccc(O)cc2)c(O)cc1OC | 115
9 | COc1ccc(-c2cnoc2-c2cc(C)c(O)c(C)c2)cc1 | 76
10 | COc1ccc(-c2cnoc2-c2ccc(OCc3ccccc3)c(OCc3ccccc3)c2)cc1 | 80
11 | CCc1cc(-c2oncc2-c2ccc(O)cc2)c(O)cc1O | 134
